Results: paper PMC3230571 (International Journal of Nanomedicine, 2011)

Tested on: rats with streptozotocin-induced diabetes
Assay: Hypoglycemic effect and relative bioavailability after oral administration
Assay type: in vivo, rat
Settings: diabetic rats fasted 12 hours, oral 20 IU/kg, n = 6

## insulin
  Hypoglycemic effect (plasma glucose relative to the initial value): did not appreciably lower the blood glucose levels
